Experiment [1] has as its target T1, interaction between recombinant K-Ras4B G12C mutant protein and cRAF RAS-binding domain (cRAF-RBD) (Homo sapiens, UniProt P01116, G12C).
T1 construct: made in house; host or cells: E. coli
Kind of experiment: Inhibitory activity on interaction between KRAS G12C and cRAF (Alpha technology). Format: biochemical. Conditions: GMPPNP-bound KRAS G12C incubated with compound at 25° C. for 1 hour, then cRAF-RBD; Alpha signal. Here is the method: Interaction between recombinant K-Ras4B G12C mutant protein (amino acids 1-169, SEQ ID NO:2) and cRAF RAS-binding domain (cRAF-RBD, amino acids 50-132, Jena Biosciences GmbH) was measured using Alpha technology (PerkinElmer Inc.).
Recombinant KRAS G12C protein with an N-terminal His-tag was expressed in E. coli and purified by affinity chromatography. To prepare GTP-bound form and GDP-bound form of KRAS G12C protein. 50 μM KRAS G12C protein was incubated with 1 mM GMPPNP (Guanosine-5′-[(β,γ)-imido]triphosphate. Tetralithium salt)(Jena Bioscience GmbH) and 1 mM GDP, respectively, in a loading buffer (20 mM Tris-HCl (pH 7.5), 50 mM NaCl, 1 mM DTT and 2.5 mM EDTA) for 1 hour on ice. After the incubation, MgCl2 was added to a final concentration of 10 mM, followed by incubation at room temperature for 30 minutes. The mixture was allowed to pass through a NAP-5 column to remove free nucleotides and purified, and the resultant nucleotide-bound KRAS G12C protein was used for compound evaluation.
For the measurement of the inhibitory activity of compounds on interaction between KRAS G12C and cRAF-RBD, GMPPNP-bound KRAS G12C protein was incubated with various concentrations of compound in a reaction buffer (20 mM Tris-HCl (pH 7.5), 100 mM NaCl, 1 mM MgCl2, 1 mM TCEP. 0.1% Tween 20) at 25° C. for 1 hour. After the incubation, recombinant cRAF-RBD and Alpha detection reagents were added and incubated at room temperature for 1.5 hours for binding. Interaction of KRAS G12C and cRAF-RBD was monitored by measuring Alpha signal. Inhibition % was calculated using the signal from the reaction without test compound (DMSO control) as 0% inhibition and the signal from the reaction using GDP-bound KRAS G12C in place of GMPPNP-bound KRAS G12C as 100% inhibition. IC50 values were calculated from dose titration curve using curve fitting by XLfit software (IDBS). The following tables show the results.

A further experiment concerns MIA PaCa-2 cells. Kind of experiment: Growth inhibition activity on KRAS-G12C mutant cell line (MIA PaCa-2), CellTiter-Glo 3D. Conditions: MIA PaCa-2, 3-day culture with compound. It is filed as cell-based, human. On the procedure: MIA PaCa-2 cells (given by Sumitomo Dainippon Pharma Co., Ltd.), which are a KRAS-G12C mutant human pancreas cancer cell line, were suspended in a 10% fetal bovine serum-containing RPMI1640 medium (manufactured by Fujifilm Wako Pure Chemical Corporation.). The cell suspension was seeded into each well of a 384-well U bottom microplate and cultured in an incubator containing 5% CO2 gas at 37° C. for 1 day. The compounds obtained in the “Preparation of Compounds” section were used as test compounds and were dissolved in DMSO, respectively, and each test compound was diluted with DMSO to give a concentration 500 times the final concentration. The resultant solution of the test compound in DMSO was diluted with the medium used for suspending cells and added to each well of the cell-culture plate to give a DMSO final concentration of 0.2%, followed by culture in an incubator containing 5% CO2 gas at 37° C. for another 3 days. The cell count after 3-day culture in the presence of the test compound was measured using CellTiter-Glo 3D Reagent (manufactured by Promega Corporation). All wells were added with CellTiter-Glo 3D Reagent and mixed for 10 minutes. 30 minutes after mixing, luminescence was measured by a plate reader. The growth inhibition rate was calculated from the following equation, and the concentration of the test compound at which 50/o inhibition was achieved (IC50 (nM)) was determined. The following tables show the results.
[formula] • T: the emission intensity in a well into which a test compound was added. • C: the emission intensity in a well into which a test compound was not added.
For orientation: ATP-based viability assays read luminescence as a measure of living cells.

For experiment [2], the target named is Gppcp-bound recombinant K-Ras4B G12C mutant protein (amino acids 1-169, C51S/C80L/C118S) (Homo sapiens, UniProt P01116, C118S/C51S/C80L/G12C). Kind of experiment: KRASG12C binding assay (LC-MS, compound binding rate). To be noted: test compound final concentration 0.5 μM, 25° C., 1 hour. On the procedure: As test compounds for the KRASG12C binding assay, the compounds obtained in the “Preparation of Compounds” section were used. Sample solutions each containing a test compound were prepared in the form of a 10 mM DMSO solution.
Gppcp-bound recombinant K-Ras4B G12C mutant protein (amino acids 1-169, C51S/C80L/C118S, SEQ ID NO:1) was diluted with a buffer (1×TBS, 0.1 mM TCEP, 0.25 mM MgCl2, 50 μM Gppcp) to prepare a 50 nM protein solution. K-Ras4B is the major splicing variant of K-Ras. Amino acid sequence of residues 1 to 150 including the compounds' binding region of K-Ras4B is exactly same as that of K-Ras4A, the other splicing variant (Oncotarget. 2016 Jul. 19; 7(29): 46717-46733). A sample solution containing 10 mM test compound was diluted ten-fold with DMSO to make a 1 mM sample solution, and then diluted twenty-fold with DMSO to make a 50 μM sample solution. 1 μL of a 50 μM sample solution was added to 100 μL of a 50 nM protein solution to adjust the final concentration of a test compound to be 0.5 μM in the mixture. The mixtures were stored in an incubator at 25° C. for 1 hour, and 10 μL of a 1×TBS solution containing 2% formic acid was added to stop the reaction, followed by LC-MS measurement. LC-MS measurement was performed using Xevo G2-S Q-Tof manufactured by Waters, and reverse-phase chromatography was performed with a desalting column. A mass spectrum of positive ions was obtained by electrospray. For a mass spectrum, a spectrum of polyvalent ions was collectively converted to a molecular weight by using OpenLynx software by the MaxEnt technique, and a compound binding rate was calculated from the ratio of the signal intensity of a peak that corresponds to the molecular weight of the protein to the signal intensity of a peak that corresponds to the molecular weight of the protein conjugated with the compound.
The binding assay of the test compounds was conducted at a final concentration of 0.5 μM. A binding rate of 80% or more is rated “A”, a binding rate of 60% or more and less than 80% is rated “B”, a binding rate of 40% or more and less than 60% is rated “C”, a binding rate of 20% or more and less than 40% is rated “D”, and a binding rate of less than 20% is rated “E”. N.D.=not determined. Binding rate % is the ratio of KRAS signal intensity at the molecular weight of one molecule adduct to the sum of all the KRAS signal intensity (unbound form and adducts) in mass spectrum. Thus, binding rate 100% means that only the one molecule adduct was observed without any unbound KRAS. The following tables show the results.

Each structure is given as a SMILES string.

As for `COc1cc(-c2cncn2C)cc(Cl)c1-c1cccn2c(C(=O)c3cc(F)c(NC(=O)/C=C/CN[C@H]4CC[C@H](OC)CC4)c(F)c3)ccc12` [Example 42, (E)-N-(4-(8-(2-chloro-6-methoxy-4-(1-methyl-1H-imidazol-5-yl)phenyl)indolizine-3-carbonyl)-2,6-difluorophenyl)-4-(((1r,4r)-4-methoxycyclohexyl)amino)but-2-enamide], the concentration for half-maximal inhibition (IC50) worked out at 85 nM in experiment [1] and 610 nM in the experiment with MIA PaCa-2 cells (Homo sapiens, MIA PaCa-2, 72 h). For the same compound, the binding rate entry in experiment [2] is reported as “A (A binding rate of 80% or more is rated “A”)”.

Regarding `CCc1nc2c(-c3c(C(F)(F)F)cc4c(nc(C)n4C)c3OC)cccn2c1C(=O)c1cc(F)c(NC(=O)/C=C/CN[C@H]2CC[C@H](OC)CC2)c(F)c1` (single isomer, unassigned) [Example 102-2, (E)-N-(4-(2-ethyl-8-(4-methoxy-1,2-dimethyl-6-(trifluoromethyl)-1H-benzo[d]imidazol-5-yl)imidazo[1,2-a]pyridine-3-carbonyl)-2,6-difluorophenyl)-4-(((1r,4r)-4-methoxycyclohexyl)amino)but-2-enamide], the concentration for half-maximal inhibition (IC50) in experiment [1] was found to be 2440 nM; in the experiment with MIA PaCa-2 cells it was 1460 nM. In addition, in experiment [2], the binding rate result was “C (a binding rate of 40% or more and less than 60% is rated “C”)”.

Turning to `CO[C@H]1CC[C@H](NC/C=C/C(=O)Nc2c(F)cc(C(=O)c3ccc4c(-c5c(C(C)C)cc6c(nc(C)n6C)c5Cl)cccn34)cc2F)CC1` (single isomer, unassigned) [Example 71-2, (E)-N-(4-(8-(4-chloro-6-isopropyl-1,2-dimethyl-1H-benzo[d]imidazol-5-yl)indolizine-3-carbonyl)-2,6-difluorophenyl)-4-(((1r,4r)-4-methoxycyclohexyl)amino)but-2-enamide], the values for the IC50 (in experiment [1]; in the experiment on MIA PaCa-2 cells) were 220 nM and 570 nM, respectively. Moreover, the binding rate entry in experiment [2] is “A (A binding rate of 80% or more is rated “A”)”.

Turning to `Cc1nc2cc(-c3cccn4c(C(=O)c5cc(F)c(NC(=O)/C=C/CN[C@H]6CC[C@H](F)CC6)c(F)c5)ccc34)c(C(F)(F)F)cc2n1C` [Example 80, (E)-N-(4-(8-(1,2-dimethyl-6-(trifluoromethyl)-1H-benzo[d]imidazol-5-yl)indolizine-3-carbonyl)-2,6-difluorophenyl)-4-(((1r,4r)-4-fluorocyclohexyl)amino)but-2-enamide], the IC50 came out at 59 nM in experiment [1] and 85 nM in the experiment on MIA PaCa-2 cells (Homo sapiens, MIA PaCa-2, 72 h). Moreover, the binding rate result in experiment [2] is “A (A binding rate of 80% or more is rated “A”)”.

Regarding `COc1cc(N2CCCC2=O)cc(Cl)c1-c1cccn2c(C(=O)c3cc(F)c(NC(=O)/C=C/CN[C@H]4CC[C@H](OC)CC4)c(F)c3)ccc12` (single isomer, unassigned) [Example 30-2, (E)-N-(4-(8-(2-chloro-6-methoxy-4-(2-oxopyrrolidin-1-yl)phenyl)indolizine-3-carbonyl)-2,6-difluorophenyl)-4-(((1r,4r)-4-methoxycyclohexyl)amino)but-2-enamide], the concentration for half-maximal inhibition (IC50) in experiment [1] came out at 61 nM; with MIA PaCa-2 cells, 120 nM. Further, in experiment [2], the binding rate result is “A (A binding rate of 80% or more is rated “A”)”.

Regarding `CO[C@H]1CC[C@H](NC/C=C/C(=O)Nc2c(F)cc(C(=O)c3ccc4c(-c5c(Br)cc6c(nc(C)n6C)c5Cl)cccn34)cc2F)CC1` [Example 31, (E)-N-(4-(8(6-bromo-4-chloro-1,2-dimethyl-1H-benzo[d]imidazol-5-yl)indolizine-3-carbonyl)-2,6-difluorophenyl)-4-(((1r,4r)-4-methoxycyclohexyl)amino)but-2-enamide], the IC50 in experiment [1] came to 62 nM; with MIA PaCa-2 cells (Homo sapiens, MIA PaCa-2, 72 h), 64 nM. For the same compound, the binding rate entry in experiment [2] is given as “A (A binding rate of 80% or more is rated “A”)”.

Take `C#Cc1cc2c(nc(C)n2C)c(Cl)c1-c1cccn2c(C(=O)c3cc(F)c(NC(=O)/C=C/CN[C@H]4CC[C@H](OC)CC4)c(F)c3)ccc12` [Example 43, (E)-N-(4-(8-(4-chloro-6-ethynyl-1,2-dimethyl-1H-benzo[d]imidazol-5-yl)indolizine-3-carbonyl)-2,6-difluorophenyl)-4-(((1r,4r)-4-methoxycyclohexyl)amino)but-2-enamide]: the IC50 in experiment [1] was 88 nM; in the experiment on MIA PaCa-2 cells (Homo sapiens, MIA PaCa-2, 72 h), 160 nM. For the same compound, the binding rate result in experiment [2] is “A (A binding rate of 80% or more is rated “A”)”.

For `COCC(C)(C)NC/C=C/C(=O)Nc1c(F)cc(C(=O)c2ccc3c(-c4cc5ncn(C)c5cc4C(F)(F)F)cccn23)cc1F` [Example 8], the 50% inhibitory concentration (IC50) in experiment [1] is 89 nM; with MIA PaCa-2 cells (Homo sapiens, MIA PaCa-2, 72 h) it was 130 nM. In addition, in experiment [2], the binding rate result was “A (A binding rate of 80% or more is rated “A”)”.

As for `COc1c(-c2cccn3c(C(=O)c4cc(F)c(NC(=O)/C=C/CNC(C)(C)C)c(F)c4)ccc23)c(C)cc2c1nc(C)n2C` (single isomer, unassigned) [Example 40-1], the IC50 (in experiment [1]; in the experiment with MIA PaCa-2 cells) was 340 nM in each case. The binding rate result in experiment [2] was “A (A binding rate of 80% or more is rated “A”)”.

Regarding `Cc1nc2cc(-c3cccn4c(C(=O)c5cc(F)c(NC(=O)/C=C/CNC6CC7CCC(C6)O7)c(F)c5)ccc34)c(C(F)(F)F)cc2n1C` (stereo not drawn) [Example 79, (E)-4-((8-oxabicyclo[3.2.1]octan-3-yl)amino)-N-(4-(8-(1,2-dimethyl-6-(trifluoromethyl)-1H-benzo[d]imidazol-5-yl)indolizine-3-carbonyl)-2,6-difluorophenyl)but-2-enamide], the IC50 in experiment [1] worked out at 61 nM; in the experiment on MIA PaCa-2 cells (Homo sapiens, MIA PaCa-2, 72 h), 110 nM. Besides, the binding rate entry in experiment [2] is “A (A binding rate of 80% or more is rated “A”)”.

Usually IC50 stands for the concentration at which inhibition is half-maximal.

The values are drawn from patent US20240246968A1, “SMALL MOLECULE INHIBITORS OF KRAS G12C MUTANT” (Merck Sharp & Dohme LLC, priority 2021, published 2024).
